Experimental data: article PMC4385830, “Group I Paks as therapeutic targets in NF2-deficient meningioma” (Oncotarget, 2015)

Legend:
Test in all cases: Kinase selectivity, Z'-LYTE
Type in all cases: biochemical
[1] = target: T1, ADRBK2 (GRK3) (Homo sapiens, UniProt P35626)
T1 construct: purchased Invitrogen (Life Technologies) SelectScreen Z'-LYTE
T1 sequence (P35626 1-688): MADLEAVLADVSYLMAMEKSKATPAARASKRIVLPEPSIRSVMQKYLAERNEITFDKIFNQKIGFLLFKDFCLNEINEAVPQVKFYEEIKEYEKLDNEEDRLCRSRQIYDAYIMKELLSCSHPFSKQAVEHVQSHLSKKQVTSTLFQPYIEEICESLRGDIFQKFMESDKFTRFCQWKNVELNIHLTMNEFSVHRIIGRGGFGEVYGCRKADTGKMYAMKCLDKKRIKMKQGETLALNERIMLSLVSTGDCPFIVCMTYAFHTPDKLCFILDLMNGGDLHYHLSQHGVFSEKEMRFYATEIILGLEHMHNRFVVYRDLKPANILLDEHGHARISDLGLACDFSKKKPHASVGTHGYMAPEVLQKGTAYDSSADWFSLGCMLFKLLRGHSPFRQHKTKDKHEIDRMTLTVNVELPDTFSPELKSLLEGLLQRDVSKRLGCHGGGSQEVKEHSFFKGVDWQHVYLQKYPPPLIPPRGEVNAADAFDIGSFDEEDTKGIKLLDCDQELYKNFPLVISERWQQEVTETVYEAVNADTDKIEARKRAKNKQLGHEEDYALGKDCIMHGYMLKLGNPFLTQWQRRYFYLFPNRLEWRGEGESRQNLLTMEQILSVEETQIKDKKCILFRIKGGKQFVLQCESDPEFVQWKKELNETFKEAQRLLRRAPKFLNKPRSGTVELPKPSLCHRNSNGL
Procedure: (§1) Kinase selectivity was assessed using a commercial service that employs a fluorescence-based, coupled-enzyme assay based on the differential sensitivity of phosphorylated and non-phosphorylated peptides to proteolytic cleavage (Invitrogen, Z'-LYTE®). This assay uses recombinant protein kinases and assay mixed optimized for each particular kinase (http://www.lifetechnologies.com/us/en/home/life-science/drug-discovery/target-and-lead-identification-and-validation /kinasebiology/kinase-activity-assays/z-lyte.html).

[2] = target: T2, CSF1R (FMS) (Homo sapiens, UniProt P07333)
T2 construct: purchased Invitrogen (Life Technologies) SelectScreen Z'-LYTE
T2 sequence (P07333 20-972): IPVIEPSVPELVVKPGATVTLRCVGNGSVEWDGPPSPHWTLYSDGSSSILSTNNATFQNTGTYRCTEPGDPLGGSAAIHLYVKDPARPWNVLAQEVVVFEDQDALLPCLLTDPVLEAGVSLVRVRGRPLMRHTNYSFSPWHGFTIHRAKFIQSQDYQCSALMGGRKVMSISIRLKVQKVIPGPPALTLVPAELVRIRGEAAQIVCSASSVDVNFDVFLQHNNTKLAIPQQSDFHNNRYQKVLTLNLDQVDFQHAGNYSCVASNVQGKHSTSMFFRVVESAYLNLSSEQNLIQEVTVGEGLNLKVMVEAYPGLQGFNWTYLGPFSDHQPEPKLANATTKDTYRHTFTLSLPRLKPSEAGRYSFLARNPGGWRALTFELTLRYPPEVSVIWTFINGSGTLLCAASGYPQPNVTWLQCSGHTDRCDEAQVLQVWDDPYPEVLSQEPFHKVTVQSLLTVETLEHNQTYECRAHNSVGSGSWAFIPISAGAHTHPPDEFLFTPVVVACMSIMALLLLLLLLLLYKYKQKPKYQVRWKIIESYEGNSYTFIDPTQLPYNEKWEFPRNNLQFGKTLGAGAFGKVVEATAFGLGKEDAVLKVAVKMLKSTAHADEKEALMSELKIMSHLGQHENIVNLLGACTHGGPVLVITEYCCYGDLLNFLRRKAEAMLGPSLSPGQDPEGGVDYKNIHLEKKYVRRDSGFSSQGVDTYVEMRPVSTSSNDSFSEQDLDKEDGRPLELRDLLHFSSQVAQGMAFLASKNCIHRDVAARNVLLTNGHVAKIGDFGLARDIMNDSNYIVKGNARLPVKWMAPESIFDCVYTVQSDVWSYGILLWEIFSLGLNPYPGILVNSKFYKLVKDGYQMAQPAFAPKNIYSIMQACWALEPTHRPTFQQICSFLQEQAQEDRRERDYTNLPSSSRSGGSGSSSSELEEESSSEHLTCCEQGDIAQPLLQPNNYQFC
Procedure: as §1

[3] = target: T3, DYRK1A (Homo sapiens, UniProt Q13627)
T3 construct: purchased Invitrogen (Life Technologies) SelectScreen Z'-LYTE
Procedure: as §1

[4] = target: T4, FGFR3 (Homo sapiens, UniProt P22607)
T4 construct: purchased Invitrogen (Life Technologies) SelectScreen Z'-LYTE
T4 sequence (P22607 23-806): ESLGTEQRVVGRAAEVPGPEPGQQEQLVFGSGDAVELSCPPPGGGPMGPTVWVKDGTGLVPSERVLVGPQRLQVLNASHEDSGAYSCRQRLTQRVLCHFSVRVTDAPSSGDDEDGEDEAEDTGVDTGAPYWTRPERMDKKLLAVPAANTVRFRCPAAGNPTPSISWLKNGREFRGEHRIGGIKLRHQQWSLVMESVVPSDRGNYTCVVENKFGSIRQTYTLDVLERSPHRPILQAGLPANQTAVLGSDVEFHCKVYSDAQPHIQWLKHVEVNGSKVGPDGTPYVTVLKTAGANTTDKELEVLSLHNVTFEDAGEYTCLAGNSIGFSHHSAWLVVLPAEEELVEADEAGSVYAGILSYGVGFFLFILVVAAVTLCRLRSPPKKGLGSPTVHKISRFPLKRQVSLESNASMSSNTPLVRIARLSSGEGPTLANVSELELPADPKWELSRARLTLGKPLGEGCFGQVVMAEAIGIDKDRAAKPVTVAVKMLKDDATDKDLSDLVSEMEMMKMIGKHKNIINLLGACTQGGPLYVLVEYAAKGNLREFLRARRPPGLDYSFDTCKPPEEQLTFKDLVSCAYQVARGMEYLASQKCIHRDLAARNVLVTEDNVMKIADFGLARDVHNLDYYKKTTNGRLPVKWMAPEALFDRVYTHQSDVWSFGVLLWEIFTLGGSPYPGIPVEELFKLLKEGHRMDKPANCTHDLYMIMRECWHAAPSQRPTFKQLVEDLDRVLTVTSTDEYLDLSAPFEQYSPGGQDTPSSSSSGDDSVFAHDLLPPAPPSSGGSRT
Procedure: as §1

[5] = target: T5, KDR (VEGFR2) (Homo sapiens, UniProt P35968)
T5 construct: purchased Invitrogen (Life Technologies) SelectScreen Z'-LYTE
T5 sequence (P35968 20-1356): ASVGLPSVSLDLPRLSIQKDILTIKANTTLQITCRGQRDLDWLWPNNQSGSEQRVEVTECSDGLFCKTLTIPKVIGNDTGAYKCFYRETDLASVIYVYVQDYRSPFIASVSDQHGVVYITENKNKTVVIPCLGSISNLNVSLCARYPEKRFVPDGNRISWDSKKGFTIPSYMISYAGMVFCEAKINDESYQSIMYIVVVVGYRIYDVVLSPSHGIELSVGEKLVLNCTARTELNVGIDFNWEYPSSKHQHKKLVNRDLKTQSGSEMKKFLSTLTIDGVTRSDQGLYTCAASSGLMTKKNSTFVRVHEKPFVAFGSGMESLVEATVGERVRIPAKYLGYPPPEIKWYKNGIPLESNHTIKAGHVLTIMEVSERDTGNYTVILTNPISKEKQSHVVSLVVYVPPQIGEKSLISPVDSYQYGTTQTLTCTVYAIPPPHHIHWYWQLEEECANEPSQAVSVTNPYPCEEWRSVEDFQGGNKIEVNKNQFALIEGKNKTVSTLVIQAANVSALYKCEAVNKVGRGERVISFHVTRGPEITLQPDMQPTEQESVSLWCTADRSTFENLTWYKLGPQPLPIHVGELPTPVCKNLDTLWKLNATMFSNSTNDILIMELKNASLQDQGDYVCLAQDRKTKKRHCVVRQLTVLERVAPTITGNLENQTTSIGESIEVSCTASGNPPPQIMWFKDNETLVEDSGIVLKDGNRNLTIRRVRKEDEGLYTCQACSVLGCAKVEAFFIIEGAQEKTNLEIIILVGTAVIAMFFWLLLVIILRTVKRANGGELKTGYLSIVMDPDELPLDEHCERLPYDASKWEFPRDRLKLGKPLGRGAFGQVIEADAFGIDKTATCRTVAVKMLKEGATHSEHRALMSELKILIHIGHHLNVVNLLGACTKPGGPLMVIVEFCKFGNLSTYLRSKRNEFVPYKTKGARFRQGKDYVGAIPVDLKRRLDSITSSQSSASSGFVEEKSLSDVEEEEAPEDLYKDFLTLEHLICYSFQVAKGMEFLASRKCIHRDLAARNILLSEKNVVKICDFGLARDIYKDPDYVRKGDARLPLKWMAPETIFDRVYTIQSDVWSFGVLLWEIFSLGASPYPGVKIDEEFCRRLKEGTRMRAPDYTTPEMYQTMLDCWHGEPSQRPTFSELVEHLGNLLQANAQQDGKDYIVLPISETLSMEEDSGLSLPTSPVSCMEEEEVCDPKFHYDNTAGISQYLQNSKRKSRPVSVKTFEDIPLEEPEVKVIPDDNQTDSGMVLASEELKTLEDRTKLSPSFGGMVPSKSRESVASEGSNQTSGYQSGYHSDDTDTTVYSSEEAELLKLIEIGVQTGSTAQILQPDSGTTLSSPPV
Procedure: as §1

[6] = target: T6, P1K3CA/PIK3R1 (p110 alpha) (Homo sapiens, UniProt P42336)
T6 construct: purchased Invitrogen (Life Technologies) SelectScreen Z'-LYTE
Procedure: as §1

[7] = target: T7, PAK7 (KIAA 1264) (Homo sapiens, UniProt Q9P286)
T7 construct: purchased Invitrogen (Life Technologies) SelectScreen Z'-LYTE
T7 sequence (Q9P286 whole entry): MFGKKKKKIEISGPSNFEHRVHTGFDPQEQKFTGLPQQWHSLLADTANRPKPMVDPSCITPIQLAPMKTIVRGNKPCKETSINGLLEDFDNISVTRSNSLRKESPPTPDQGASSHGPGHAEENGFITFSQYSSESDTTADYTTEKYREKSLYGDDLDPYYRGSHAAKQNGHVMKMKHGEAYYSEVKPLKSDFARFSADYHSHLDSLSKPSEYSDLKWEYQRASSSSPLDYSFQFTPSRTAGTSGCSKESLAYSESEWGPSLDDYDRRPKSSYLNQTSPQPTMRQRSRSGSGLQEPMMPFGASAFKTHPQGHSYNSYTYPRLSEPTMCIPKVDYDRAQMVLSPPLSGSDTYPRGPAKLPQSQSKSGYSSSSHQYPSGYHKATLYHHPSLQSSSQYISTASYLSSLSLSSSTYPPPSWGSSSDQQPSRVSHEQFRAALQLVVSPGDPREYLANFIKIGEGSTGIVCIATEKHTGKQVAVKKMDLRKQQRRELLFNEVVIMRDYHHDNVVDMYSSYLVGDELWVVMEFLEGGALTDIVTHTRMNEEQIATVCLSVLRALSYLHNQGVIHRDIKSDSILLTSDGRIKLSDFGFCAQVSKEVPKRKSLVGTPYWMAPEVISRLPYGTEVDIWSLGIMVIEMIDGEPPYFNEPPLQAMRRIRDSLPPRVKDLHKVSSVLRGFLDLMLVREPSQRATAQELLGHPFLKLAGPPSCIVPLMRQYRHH
Procedure: as §1

[8] = target: T8, PDGFRB (PDGFR beta) (Homo sapiens, UniProt P09619)
T8 construct: purchased Invitrogen (Life Technologies) SelectScreen Z'-LYTE
T8 sequence (P09619 33-1106): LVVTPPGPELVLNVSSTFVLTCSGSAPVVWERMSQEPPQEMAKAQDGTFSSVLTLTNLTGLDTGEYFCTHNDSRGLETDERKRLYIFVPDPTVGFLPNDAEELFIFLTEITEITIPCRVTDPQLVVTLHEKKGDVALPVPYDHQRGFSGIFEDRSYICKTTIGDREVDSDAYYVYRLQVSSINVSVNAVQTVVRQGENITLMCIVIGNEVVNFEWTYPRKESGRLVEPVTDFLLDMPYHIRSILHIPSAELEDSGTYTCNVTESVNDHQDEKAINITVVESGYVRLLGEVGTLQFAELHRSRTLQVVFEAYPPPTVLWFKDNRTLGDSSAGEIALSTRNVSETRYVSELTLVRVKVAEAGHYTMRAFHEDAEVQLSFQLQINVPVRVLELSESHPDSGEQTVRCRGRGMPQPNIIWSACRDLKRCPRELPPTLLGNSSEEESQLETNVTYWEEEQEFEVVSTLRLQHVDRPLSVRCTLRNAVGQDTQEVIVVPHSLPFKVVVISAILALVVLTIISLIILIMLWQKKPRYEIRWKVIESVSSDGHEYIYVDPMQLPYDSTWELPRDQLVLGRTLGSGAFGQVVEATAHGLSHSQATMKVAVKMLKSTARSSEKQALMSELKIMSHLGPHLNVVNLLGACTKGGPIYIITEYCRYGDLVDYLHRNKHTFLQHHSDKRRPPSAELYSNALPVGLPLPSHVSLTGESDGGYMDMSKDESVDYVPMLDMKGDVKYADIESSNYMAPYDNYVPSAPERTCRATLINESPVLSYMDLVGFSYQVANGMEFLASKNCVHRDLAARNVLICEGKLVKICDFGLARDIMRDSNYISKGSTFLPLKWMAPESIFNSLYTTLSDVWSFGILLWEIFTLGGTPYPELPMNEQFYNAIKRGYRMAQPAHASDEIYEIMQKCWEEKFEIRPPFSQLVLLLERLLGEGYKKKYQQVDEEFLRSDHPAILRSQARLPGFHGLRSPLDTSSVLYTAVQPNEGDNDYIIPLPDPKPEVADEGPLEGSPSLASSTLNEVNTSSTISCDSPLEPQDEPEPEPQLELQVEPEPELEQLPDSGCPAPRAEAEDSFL
Procedure: as §1

[9] = target: T9, SYK (Homo sapiens, UniProt P43405)
T9 construct: purchased Invitrogen (Life Technologies) SelectScreen Z'-LYTE
Procedure: as §1

[10] = target: T10, ZAP70 (Homo sapiens, UniProt P43403)
T10 construct: purchased Invitrogen (Life Technologies) SelectScreen Z'-LYTE
T10 sequence (P43403 1-619): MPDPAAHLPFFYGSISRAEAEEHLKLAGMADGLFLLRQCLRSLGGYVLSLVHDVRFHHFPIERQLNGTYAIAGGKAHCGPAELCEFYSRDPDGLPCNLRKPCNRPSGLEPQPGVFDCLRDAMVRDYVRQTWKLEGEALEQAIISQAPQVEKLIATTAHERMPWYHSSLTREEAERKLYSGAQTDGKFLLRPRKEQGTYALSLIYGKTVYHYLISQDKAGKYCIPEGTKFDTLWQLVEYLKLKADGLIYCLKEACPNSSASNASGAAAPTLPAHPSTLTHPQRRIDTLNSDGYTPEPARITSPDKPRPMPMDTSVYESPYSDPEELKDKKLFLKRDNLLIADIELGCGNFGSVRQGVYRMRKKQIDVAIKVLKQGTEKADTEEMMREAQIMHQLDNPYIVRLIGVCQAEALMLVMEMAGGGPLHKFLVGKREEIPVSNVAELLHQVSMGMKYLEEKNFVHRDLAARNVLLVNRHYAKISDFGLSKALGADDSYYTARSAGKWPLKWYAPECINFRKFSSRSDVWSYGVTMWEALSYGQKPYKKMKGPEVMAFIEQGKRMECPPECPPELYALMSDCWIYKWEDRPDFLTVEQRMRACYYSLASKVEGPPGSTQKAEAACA
Procedure: as §1

% inhibition of activity [1] [%]	% inhibition of activity [2] [%]	% inhibition of activity [3] [%]	% inhibition of activity [4] [%]	% inhibition of activity [5] [%]	% inhibition of activity [6] [%]	% inhibition of activity [7] [%]	% inhibition of activity [8] [%]	% inhibition of activity [9] [%]	% inhibition of activity [10] [%]	Compound
−1	41	5	0	16	0	9	83	4	3	CCn1c(=O)c(-c2ccc(-c3cncc(C)n3)cc2Cl)cc2cnc(NCCC3CCN(C)CC3)nc21 [Frax1036]
4	20	6	31	20	0	99	14	32	10	Cc1nc(Nc2[nH]nc3c2CN(C(=O)N[C@H](CN(C)C)c2ccccc2)C3(C)C)c2sccc2n1 [PF3758309, reference compound]

Compound	% inhibition of activity [1] [%]	% inhibition of activity [2] [%]	% inhibition of activity [3] [%]	% inhibition of activity [4] [%]	% inhibition of activity [5] [%]	% inhibition of activity [6] [%]	% inhibition of activity [7] [%]	% inhibition of activity [8] [%]	% inhibition of activity [9] [%]	% inhibition of activity [10] [%]
CCn1c(=O)c(-c2ccc(-c3noc(C)n3)cc2Cl)cc2cnc(Nc3ccc(C4CCN(C)CC4)cc3)nc21 [Frax716]	2	97	3	35	90	−1	17	82	21	8
